Data set [1] has as its target T1, H-2K^b (Mus musculus, UniProt P01901). In words: Peptide-MHC binding affinity assay, stabilization of H-2K^b on TAP-deficient RMA-S cells. The following applies: 5×10^5, peptide overnight (12 hours) 26°C in serum free AIM-V, then 37°C 60 min without peptide, anti-H-2K^b AF6-88.5, flow cytometry, MFI relative to no peptide, repeated three times. (In general: Flow cytometry measures light scatter and fluorescence of single cells or particles in a stream.)

The target in data set [2] is T1, H-2K^b. In words: MHC complex stability, circular dichroism thermal denaturation. Type of data set: binding. The note with it: for Tm (melting temperature): soluble H-2K^b/peptide complex, CD 218 nm, 30-75°C, 48°C/hour, 20 mM K2HPO4/KH2PO4 pH 7.5, protein 0.15 to 0.25 mg/ml, Tm at 50% denaturation. Background: Circular dichroism is the unequal absorption of left and right circularly polarised light.

Data set [3] addresses T1, H-2K^b. The experiment in a line: MHC complex stability, Thermofluor (differential scanning fluorimetry). It is filed as binding. The note with it: H-2K^b/peptide complex 0.25 mg/mL, 10 mM Na^+ HEPES pH 7.3, 150 mM NaCl, SYPRO Orange, 20 to 95°C at 1°C/min; maximum of first derivative; average of three distinct melting curves. The procedure:
Differential scanning fluorimetry experiments were carried out using an iQ5 real-time PCR detection system (Bio-Rad). 96-well PCR plates were filled with 23 µl of MHC solution (0.25 mg/mL) in 10 mM Na^+ HEPES buffer (pH 7.3), 150 mM NaCl per well. Finally, the fluorophore (2 µl of 125× SYPRO Orange (Sigma S5692)) was added to each well and the plate was sealed with optical sealing tape (Bio-Rad). An iQ5 Real-Time PCR Detection System, calibrated with External Well factor solution was used to monitor the changes in fluorescence intensity of the fluorophore. The temperature of the samples was changed from 20 to 95°C at a heating rate of 1°C/min and the fluorescence was recorded every 0.2°C. The melting temperature (Tm) of each melting curve was calculated as the maximum of the first derivative of the curve. The average Tm value of each protein was determined from three distinct melting curves.

Another data set deals with T cell hybridoma 24H1. On the set-up: method as in PMID 18424715. The note with it: cited from earlier work; for recognition by T cell hybridoma 24H1: H-2K^b/peptide or H-2K^b+ target cells coated with peptide.
The subject of the next data set is T cell hybridoma 4C8. The note with it: H-2D^b context; 4C8 is H-2D^b/NY-gp33-specific; cited from earlier work. The source says: A significant amount of the overall CD8^+ T cell response to LCMV is dominated by very few viral epitopes, comprising the H-2D^b-and H-2K^b- restricted peptide gp33–41 (hereafter referred to as gp33; […]) and the H-2K^b-restricted peptide gp34–41 (gp34; […]), [39]. Both gp33 and gp34 contain a single tyrosine residue at positions ...

Where [4] appears, read: average of at least two independent measurements, value ± spread printed in Figure 4B.
Where [5] appears, read: average of at least two measurements from two independent refolding assays.

“Also recorded” adds a separate entry of the source.

T1 sequence (P01901 whole entry, looked up): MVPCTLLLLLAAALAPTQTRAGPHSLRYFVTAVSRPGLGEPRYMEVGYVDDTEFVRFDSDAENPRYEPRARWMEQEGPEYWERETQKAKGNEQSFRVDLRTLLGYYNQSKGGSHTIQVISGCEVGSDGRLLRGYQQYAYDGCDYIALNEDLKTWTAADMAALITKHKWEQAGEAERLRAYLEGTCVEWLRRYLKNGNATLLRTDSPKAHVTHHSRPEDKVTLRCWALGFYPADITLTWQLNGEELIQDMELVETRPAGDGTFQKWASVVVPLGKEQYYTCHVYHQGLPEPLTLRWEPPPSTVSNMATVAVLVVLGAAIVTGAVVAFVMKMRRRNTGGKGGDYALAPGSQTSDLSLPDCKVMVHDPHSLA

For “AV-p3NY-NFATM [NY-gp34, nitrotyrosinated gp34, AV-p3NY-NFATM]”, the “binding affinity to H-2K^b (cell surface stabilization)” value at H-2K^b [1] is “significantly reduced binding affinity; also recorded: significantly reduced when compared to gp33 and gp34”. Further, the “capacity to stabilize H-2K^b complexes” value on H-2K^b [2] (CD thermal denaturation, compared to gp34) is recorded as “considerably reducing the stability; also recorded: significantly reduced when compared to gp34; also recorded: significantly reduced capacity”. The “decrease in Tm of H-2K^b/NY-gp34 versus H-2K^b/gp34” value at H-2K^b [2] (CD, pH 7.5, lower than for H-2K^b/gp34 (nearly)) is about 10 °C. Also, the “Tm (melting temperature)” value came out at 47.3 ± 0.1 on H-2K^b [2] (setting [4]), 47.3 °C at H-2K^b [2] (setting [5]) and 44.5±0.2 at H-2K^b [3]. In the data set on T cell hybridoma 24H1 (H-2K^b context), the “relative level of recognition by 24H1, NY-gp34 versus NY-gp33” value is on record as “to a higher level when compared to H-2K^b/NY-gp33”. For the same substance, in the data set on T cell hybridoma 24H1, the “recognition by T cell hybridoma 24H1” value is listed as “recognized; also recorded: responded to stimulation”.
As for AVYNFATM [gp34], the entries for the “Tm (melting temperature)” value at H-2K^b [2] (setting [4]), on H-2K^b [2] (setting [5]) and at H-2K^b [3] were 56.7 ± 0.1, 56.7 °C and 54.4±0.1, respectively. Besides, the “recognition by T cell hybridoma 24H1” value in the data set with T cell hybridoma 24H1 is given as “did not recognize”.
As to KAVYNFATM [gp33], the “recognition by T cell hybridoma 24H1” value in the data set with T cell hybridoma 24H1 is given as “did not recognize”. In addition, the “recognition by T cell hybridoma 4C8” value in the data set on T cell hybridoma 4C8 is on record as “did not recognize”.
